Measurements from US11072581B2, “N-acyl-arylsulfonamide derivatives as aminoacyl-tRNA synthetase inhibitors” (Oxford Drug Design Limited, priority 2015, dated 2021).
Where a name gives a salt, the structure may show the parent alone.

Assays:
Format in all cases: biochemical
Details in all cases: i.a. = inactive at a concentration below 50 uM
[1] = biological target: T1, EcoIRS (isoleucyl-tRNA synthetase from Escherichia coli) (Escherichia coli, UniProt P00956); experiment: aaRS aminoacylation assay (ATP consumption), EcoIRS
T1 construct: made in house; host or cells: Escherichia coli M15
T1 sequence (P00956 whole entry): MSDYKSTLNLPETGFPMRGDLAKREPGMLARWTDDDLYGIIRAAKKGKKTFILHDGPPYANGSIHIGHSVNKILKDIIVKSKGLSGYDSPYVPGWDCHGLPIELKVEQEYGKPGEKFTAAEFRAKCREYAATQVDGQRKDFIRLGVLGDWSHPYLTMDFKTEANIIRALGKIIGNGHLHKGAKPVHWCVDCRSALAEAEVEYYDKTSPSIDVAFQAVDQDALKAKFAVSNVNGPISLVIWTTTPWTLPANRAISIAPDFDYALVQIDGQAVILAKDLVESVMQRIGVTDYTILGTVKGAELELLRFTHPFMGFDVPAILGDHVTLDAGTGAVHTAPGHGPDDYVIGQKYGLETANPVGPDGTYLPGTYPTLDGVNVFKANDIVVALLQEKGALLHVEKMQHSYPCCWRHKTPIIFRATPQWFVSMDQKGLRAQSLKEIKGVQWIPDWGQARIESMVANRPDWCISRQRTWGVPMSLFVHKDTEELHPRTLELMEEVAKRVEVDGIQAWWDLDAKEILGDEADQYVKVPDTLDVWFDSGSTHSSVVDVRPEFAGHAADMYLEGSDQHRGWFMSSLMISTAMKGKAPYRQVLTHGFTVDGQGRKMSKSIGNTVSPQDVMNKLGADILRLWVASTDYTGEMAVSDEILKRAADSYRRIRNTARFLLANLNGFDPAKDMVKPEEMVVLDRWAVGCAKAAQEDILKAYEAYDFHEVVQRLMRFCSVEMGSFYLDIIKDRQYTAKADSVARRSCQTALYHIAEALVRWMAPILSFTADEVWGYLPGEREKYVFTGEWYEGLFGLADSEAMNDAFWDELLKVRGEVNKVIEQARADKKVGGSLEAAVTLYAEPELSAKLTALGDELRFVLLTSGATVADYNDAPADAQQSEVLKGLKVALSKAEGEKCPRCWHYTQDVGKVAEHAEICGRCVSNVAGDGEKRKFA
Procedure: (§1) The compounds have been tested for antibacterial activity in vitro as aminoacyl-tRNA synthetases (aaRS) inhibitors following the following process.
(§2) Leucyl-, valyl- and isoleucyl-tRNA synthetases (LRS, VRS and IRS, respectively) from Escherichia coli (Eco) and Staphylococcus aureus (Sau).
(§3) Escherichia coli M15 cells transformed with plasmid pQE-60, or pQE-70, containing the open-reading frame sequence of one targeted aaRS were induced with 1 mM IPTG (Isopropyl β-D-1-thiogalactopyranoside) for 3 h at 37° C. Bacterial cells were harvested and lysed with 20 mM NaH2PO4 (pH 8.0), 200 mM NaCl, 10 mM imidazole and protease inhibitor cocktail (Roche). Pathogenic aaRS was purified by nickel affinity standard chromatography. Protein concentration was determined by spectrophotometry.
(§4) tRNA^Leu, tRNA^Val and tRNA^Ile from E. coli and S. aureus were transcribed in vitro for 4 h at 37° C. using T7 RNA polymerase. Transcription reaction contained 40 mM Tris-HCl (pH 8.0), 22 mM MgCl2, 1 mM spermidine, 5 mM DTT, 0.01% Triton X-100, 4 mM GTP, 4 mM ATP, 4 mM UTP, 4 mM CTP, 16 mM GMP, […] T7 RNA polymerase and 150 μg BstNI digested plasmid. Once finished, the reaction was applied on a 6% polyacrylamide-8 M urea denaturing gel to purify the transcribed tRNA and discard any impurities. Purified tRNA was quantified with Nanodrop 2000 (Thermo Scientific).
(§5) The aminoacylation reaction catalyzed by aminoacyl-tRNA synthetases (aaRS) takes place in two steps. In the first step, aaRS activates its cognate amino acid with ATP; and in the second step the activated amino acid is loaded to its corresponding tRNA. This reaction can be summarized as follows: ARS+aa+ATP=ARS-aa-AMP+PPi ARS-aa-AMP+tRNA=aa-tRNA+AMP+ARS [2] (ARS, Aminoacyl-tRNA synthetase; aa, amino acid; ARS-aa-AMP, enzyme-bound to aminoacyl-adenylate; aa-tRNA, aminoacyl-tRNA).
(§6) The activity of the pathogenic aaRSs was monitored by measuring the ATP consumption rate, since this consumption is directly proportional to the activity of the aaRS. If the tested compound, at a single point concentration of 50 μM, is inhibiting the aminoacylation reaction, there is a decrease in the ATP consumption, compared to the control reaction without compound, allowing the calculation of an inhibition ratio.
(§7) When the inhibition ratio for a given compound was above 80%, IC50 determination was performed with the same enzymatic assay (using the commercial kit Kinase RR from BioThema AB, Sweden) in the presence of serial dilutions of inhibitor. Known inhibitors of LRS, VRS or IRS were used as a positive control of the assay. The IC50 was calculated based on nonlinear regression analysis.

[2] = biological target: T2, SauIRS (isoleucyl-tRNA synthetase from Staphylococcus aureus) (Staphylococcus aureus, UniProt P41972); experiment: aaRS aminoacylation assay (ATP consumption), SauIRS
T2 construct: made in house; host or cells: Escherichia coli M15
T2 sequence (P41972 1-917): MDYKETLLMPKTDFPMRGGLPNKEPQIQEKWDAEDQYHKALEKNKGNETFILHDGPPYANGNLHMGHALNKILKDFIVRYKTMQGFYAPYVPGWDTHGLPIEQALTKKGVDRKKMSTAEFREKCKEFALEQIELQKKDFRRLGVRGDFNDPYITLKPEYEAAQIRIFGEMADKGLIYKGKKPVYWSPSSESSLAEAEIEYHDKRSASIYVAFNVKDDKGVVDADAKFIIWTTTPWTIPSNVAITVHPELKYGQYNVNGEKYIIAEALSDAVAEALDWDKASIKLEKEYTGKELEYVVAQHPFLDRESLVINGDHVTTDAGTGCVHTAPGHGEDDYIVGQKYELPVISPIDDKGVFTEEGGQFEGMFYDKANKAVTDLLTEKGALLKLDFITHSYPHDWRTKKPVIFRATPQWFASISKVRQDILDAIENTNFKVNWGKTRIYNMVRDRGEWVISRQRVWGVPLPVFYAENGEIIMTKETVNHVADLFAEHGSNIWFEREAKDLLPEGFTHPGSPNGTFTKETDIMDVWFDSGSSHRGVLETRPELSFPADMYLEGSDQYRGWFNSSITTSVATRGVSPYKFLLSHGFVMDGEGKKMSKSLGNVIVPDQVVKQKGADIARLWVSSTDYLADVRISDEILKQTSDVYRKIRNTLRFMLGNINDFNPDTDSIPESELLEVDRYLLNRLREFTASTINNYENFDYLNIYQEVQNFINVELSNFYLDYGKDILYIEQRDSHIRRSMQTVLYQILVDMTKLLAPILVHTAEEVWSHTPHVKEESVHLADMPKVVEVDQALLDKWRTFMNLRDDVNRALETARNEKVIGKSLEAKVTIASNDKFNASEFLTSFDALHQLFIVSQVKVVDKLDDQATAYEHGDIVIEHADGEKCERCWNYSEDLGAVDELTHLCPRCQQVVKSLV
Procedure: as §1, §2, §3, §4, §5, §6, §7

[3] = biological target: T3, SauVRS (valyl-tRNA synthetase from Staphylococcus aureus) (Staphylococcus aureus, UniProt Q2FXR8); experiment: aaRS aminoacylation assay (ATP consumption), SauVRS
T3 construct: made in house; host or cells: Escherichia coli M15
T3 sequence (Q2FXR8 1-876): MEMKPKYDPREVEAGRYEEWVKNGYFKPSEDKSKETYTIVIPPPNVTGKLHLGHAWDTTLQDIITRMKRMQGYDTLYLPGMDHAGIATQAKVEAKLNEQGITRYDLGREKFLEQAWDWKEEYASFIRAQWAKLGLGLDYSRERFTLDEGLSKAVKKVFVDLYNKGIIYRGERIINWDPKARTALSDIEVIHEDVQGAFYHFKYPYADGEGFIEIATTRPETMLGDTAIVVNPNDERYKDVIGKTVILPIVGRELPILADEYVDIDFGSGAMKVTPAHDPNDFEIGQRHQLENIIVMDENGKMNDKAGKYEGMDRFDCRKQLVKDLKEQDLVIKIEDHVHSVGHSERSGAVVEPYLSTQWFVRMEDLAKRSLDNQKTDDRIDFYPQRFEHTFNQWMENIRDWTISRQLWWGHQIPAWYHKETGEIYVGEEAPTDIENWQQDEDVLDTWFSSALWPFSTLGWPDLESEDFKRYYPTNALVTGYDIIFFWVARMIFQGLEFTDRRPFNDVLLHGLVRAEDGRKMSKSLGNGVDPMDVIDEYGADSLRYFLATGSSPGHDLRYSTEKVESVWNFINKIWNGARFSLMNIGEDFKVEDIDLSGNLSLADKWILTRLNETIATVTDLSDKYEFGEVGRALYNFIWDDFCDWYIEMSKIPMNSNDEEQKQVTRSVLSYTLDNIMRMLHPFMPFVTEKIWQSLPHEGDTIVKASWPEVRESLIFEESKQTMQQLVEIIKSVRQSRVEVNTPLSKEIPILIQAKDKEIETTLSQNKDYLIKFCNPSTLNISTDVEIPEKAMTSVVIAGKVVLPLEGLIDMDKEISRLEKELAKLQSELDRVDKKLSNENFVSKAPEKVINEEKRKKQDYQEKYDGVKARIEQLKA
Procedure: as §1, §2, §3, §4, §5, §6, §7

## N[C@@H](CC1CC1)C(=O)NS(=O)(=O)c1cccc(-c2ccccc2)c1 (racemic) [Compound 5.10]
[1]
  IC50 EcoIRS: i.a
[2]
  IC50 SauIRS: i.a
[3]
  IC50 SauVRS: i.a

## CC(C)C[C@H](N)C(=O)NS(=O)(=O)c1ccccc1 [Compound 5.1, (S)-2-amino-4-methyl-N-(phenylsulfonyl)pentanamide hydrochloride]
[1]
  IC50 EcoIRS: i.a.
[2]
  IC50 SauIRS: i.a.
[3]
  IC50 SauVRS: i.a.

## CC(C)C[C@H](N)C(=O)NS(=O)(=O)c1ccc(Oc2ccccc2)cc1 [Compound 5.2]
[1]
  IC50 EcoIRS: i.a
[2]
  IC50 SauIRS: i.a
[3]
  IC50 SauVRS: i.a

## CC(C)C[C@H](N)C(=O)NS(=O)(=O)c1ccccc1-c1ccccc1 [Compound 5.3]
[1]
  IC50 EcoIRS: i.a
[2]
  IC50 SauIRS: i.a
[3]
  IC50 SauVRS: i.a

## CC(C)C[C@H](N)C(=O)NS(=O)(=O)c1cccc(Cl)c1 [Compound 5.4]
[1]
  IC50 EcoIRS: i.a
[2]
  IC50 SauIRS: i.a
[3]
  IC50 SauVRS: i.a

## CC(C)C[C@H](N)C(=O)NS(=O)(=O)c1ccccc1Cl [Compound 5.5]
[1]
  IC50 EcoIRS: i.a
[2]
  IC50 SauIRS: i.a
[3]
  IC50 SauVRS: i.a

## CC(C)C[C@H](N)C(=O)NS(=O)(=O)c1ccccc1F [Compound 5.6]
[1]
  IC50 EcoIRS: i.a
[2]
  IC50 SauIRS: i.a
[3]
  IC50 SauVRS: i.a

## CCCCc1ccc(S(=O)(=O)NC(=O)[C@@H](N)CC(C)C)cc1 [Compound 5.7]
[1]
  IC50 EcoIRS: i.a
[2]
  IC50 SauIRS: i.a
[3]
  IC50 SauVRS: i.a

## CC(C)C[C@H](N)C(=O)NS(=O)(=O)c1cccc(-c2ccccc2)c1 [Compound 5.9]
[1]
  IC50 EcoIRS: i.a
[2]
  IC50 SauIRS: i.a
[3]
  IC50 SauVRS: i.a

## Cc1cc(-c2cccc(S(=O)(=O)NC(=O)[C@@H](N)CC(C)C)c2)nc(N)n1 [Compound 5.35, (S)-2-amino-N-((3-(2-amino-6-methylpyrimidin-4-yl)phenyl)sulfonyl)-4-methylpentanamide]
[2]
  IC50 SauIRS: i.a.
[3]
  IC50 SauVRS: i.a.

## COc1cc(-c2cccc(S(=O)(=O)NC(=O)[C@@H](N)CC(C)C)c2)nc(N)n1 [Compound 5.36]
[2]
  IC50 SauIRS: i.a.
[3]
  IC50 SauVRS: i.a.

## CC(C)C[C@H](N)C(=O)NS(=O)(=O)c1cccc(-c2ccnc(N)n2)c1 [Compound 5.37]
[2]
  IC50 SauIRS: i.a.
[3]
  IC50 SauVRS: i.a.

## CC(C)C[C@H](N)C(=O)NS(=O)(=O)c1cccc(-c2nc(N)nc3nc[nH]c23)c1 [Compound 5.38]
[2]
  IC50 SauIRS: i.a.
[3]
  IC50 SauVRS: i.a.

## Cc1cc(-c2cccc(S(=O)(=O)NC(=O)[C@@H](N)CC(C)C)c2)ncn1 [Compound 5.39]
[2]
  IC50 SauIRS: i.a.
[3]
  IC50 SauVRS: i.a.

## CC[C@H](C)[C@H](N)C(=O)NS(=O)(=O)c1cccc(-c2cc(C)nc(N)n2)c1 [Compound 5.40]
[2]
  IC50 SauIRS: i.a.
[3]
  IC50 SauVRS: i.a.

## CC(C)C[C@H](N)C(=O)NS(=O)(=O)c1cccc(-c2cc(-c3ccccc3)nc(N)n2)c1 [Compound 5.41]
[2]
  IC50 SauIRS: i.a.
[3]
  IC50 SauVRS: i.a.

## CC(C)C[C@H](N)C(=O)NS(=O)(=O)c1cccc(-c2ccncc2)c1 [Compound 5.42]
[2]
  IC50 SauIRS: i.a.
[3]
  IC50 SauVRS: i.a.

## CC(C)C[C@H](N)C(=O)NS(=O)(=O)c1cccc(-c2ccnc(N)c2)c1 [Compound 5.43]
[2]
  IC50 SauIRS: i.a.
[3]
  IC50 SauVRS: i.a.

## CC(C)C[C@H](N)C(=O)NS(=O)(=O)c1cccc(-c2cccc(N)n2)c1 [Compound 5.44]
[2]
  IC50 SauIRS: i.a.
[3]
  IC50 SauVRS: i.a.

## CC(C)C[C@H](N)C(=O)NS(=O)(=O)c1cccc(-c2cc(N)nc(N)n2)c1 [Compound 5.45]
[2]
  IC50 SauIRS: i.a.
[3]
  IC50 SauVRS: i.a.

## CC(C)C[C@H](N)C(=O)NS(=O)(=O)c1cccc(-c2cc(N)ncn2)c1 [Compound 5.46]
[2]
  IC50 SauIRS: i.a.
[3]
  IC50 SauVRS: i.a.

## CCc1cc(-c2cccc(S(=O)(=O)NC(=O)[C@@H](N)CC(C)C)c2)nc(N)n1 [Compound 5.47]
[2]
  IC50 SauIRS: i.a.
[3]
  IC50 SauVRS: i.a.

## CC(C)C[C@H](N)C(=O)NS(=O)(=O)c1cccc(-c2ncnc(N)n2)c1 [Compound 5.48]
[2]
  IC50 SauIRS: i.a.
[3]
  IC50 SauVRS: i.a.

## CC(C)C[C@H](N)C(=O)NS(=O)(=O)c1cccc(-c2ccnc(Cl)n2)c1 [Compound 5.49]
[2]
  IC50 SauIRS: i.a.
[3]
  IC50 SauVRS: i.a.

## CC(C)C[C@H](N)C(=O)NS(=O)(=O)c1cccc(-c2ccnc(O)n2)c1 [Compound 5.50]
[2]
  IC50 SauIRS: i.a.
[3]
  IC50 SauVRS: i.a.
